In EP4737445A1, “NOVEL SATURATED HETEROCYCLE-SUBSTITUTED HETEROARYL-CARBONOHYDRAZONOYL DICYANIDE COMPOUND AND USE THEREOF” (Korea Institute of Science and Technology, priority 2023, dated 2025):

Experiments:
Tau-BiFC cells = test: Cell viability (stained nuclei count) in Tau-BiFC cells; format: cell-based; conditions: @10 µM; Tau-BiFC cell line; Forskolin-only group = 100%
Method: (§1) To screen for new tau aggregation inhibitors, a Tau-BiFC cell model that facilitates observation of tau oligomer formation in living cells was used. Tau-BiFC cells were dispensed into a 384-well plate, and the next day, the compounds prepared according to Examples 1 to 46 were treated at concentrations of 1, 3, and 10 µM, respectively, together with Forskolin (treatment concentration 30 µM), which is a compound that induces tau aggregation by activating the tau phosphorylation enzyme PKA. After 48 hours, nuclei within cells were stained using Hoechst (treatment concentration 2 µg/mL), and BiFC fluorescence intensity was automatically quantified using Operetta (Perkin Elmer) to count the stained nuclei in each well from the entire plate. The group treated only with Forskolin, which induces tau aggregation, was set as the reference point with 100% tau aggregation state, and the effect was confirmed by the formula "BiFC fluorescence intensity by the compounds synthesized according to the Examples of the disclosure/(fluorescence intensity of the control group treated only with Forskolin that induces tau aggregation - fluorescence intensity of the untreated control group) × 100". In addition, the degree of cytotoxicity induced by the newly synthesized compounds was also calculated using the formula "(number of stained nuclei in the compound-treated group/number of stained nuclei in the Forskolin-treated group) × 100", with the group treated only with Forskolin as the reference point at 100% viability. From the treatment results, substances that inhibit intracellular tau aggregation were identified through screening from a series of candidates based on the criteria of 70% or more tau aggregation inhibition and 100% cell viability at a compound treatment concentration of 10 µM.
(§2) To confirm the tau aggregation inhibitory effect according to the concentration of the compounds screened in Experimental Example 1, the screened compounds were treated to Tau-BiFC cells at concentrations of 0.03, 0.1, 0.3, 1, 3, 10, and 30 µM, respectively, together with Forskolin (treatment concentration 30 µM), which is a tau aggregation-inducing substance. After 48 hours, cell images were examined to analyze the tau aggregation reaction and degree of cytotoxicity. The IC50 and toxicity of the compounds were analyzed by nonlinear regression analysis using Prism software (GraphPad). The calculated results for representative compounds are shown in Table 3 below: Tau aggregation inhibitory effect and cell viability of novel compounds.

CYP2D6 = target: T1, CYP2D6 (Homo sapiens, UniProt P10635); test: CYP isoenzyme activity inhibition in human liver microsomes, CYP2D6; format: in vitro ADME; conditions: 10 µM compound; human liver microsomes 0.25 mg/mL; relative to control without compound
T1 construct: human liver microsomes (0.25 mg/mL); from tissue; host or cells: human liver microsomes
Method: (§3) The CYP isoenzyme activity inhibitory effect by the compounds prepared according to Examples 1 to 46 was confirmed. Specifically, human liver microsomes (0.25 mg/mL), 0.1 M phosphate buffer solution (pH 7.4), a substrate drug cocktail of five drug metabolizing enzymes (Phenacetin 50 µM, Diclofenac 10 µM, S-mephenytoin 100 µM, Dextromethorphan 5 µM, and Midazolam 2.5 µM), and the compounds were added at concentrations of 0 or 10 µM, respectively, and pre-incubated at 37°C for 5 minutes, and then NADPH generation system solution was added and incubated at 37°C for an additional 15 minutes. Thereafter, an acetonitrile solution containing an internal standard (Terfenadine) was added to terminate the reaction, and after centrifugation for 5 minutes (14,000 rpm, 4°C), the supernatant was injected into an LC-MS/MS system to simultaneously analyze the metabolites of the substrate drugs, thereby evaluating the drug metabolizing enzyme inhibitory activity.
(§4) The metabolites of each CYP isoenzyme marker drug generated through the reaction were analyzed using a Shimadzu Nexera XR system and TSQ vantage (Thermo). A Kinetex C18 (2.1 × 100 mm, 2.6 µm, particle size; Phenomenex, USA) was used as the HPLC column, and (A) distilled water containing 0.1% formic acid and (B) acetonitrile containing 0.1% formic acid were used as mobile phases, and a gradient program as shown in Table 6 below was applied.
(§5) The generated metabolites were quantified using MRM (Multiple Reaction Monitoring) quantitative mode, and Xcalibur (version 1.6.1) was used for data analysis. To show the CYP isoenzyme activity inhibitory effect of the novel compounds prepared according to the Examples of the disclosure, the % activity of CYP isoenzymes relative to the control group without compound addition is shown in Table 6 below. Additionally, to confirm the difference in effect according to substituents, Comparative Compounds 1 and 5, which are two compounds that share a similar parent nucleus structure with Compounds 1 to 46 of the disclosure while Cy is substituted with aromatic heteroaryl instead of saturated heterocyclyl, were selected as comparative compounds and their activities are shown together.

CYP2C19 = target: T2, CYP2C19 (Homo sapiens, UniProt P33261); test: CYP isoenzyme activity inhibition in human liver microsomes, CYP2C19; format: in vitro ADME; conditions: 10 µM compound; human liver microsomes 0.25 mg/mL; relative to control without compound
T2 construct: human liver microsomes (0.25 mg/mL); from tissue; host or cells: human liver microsomes
Method: as §3, §4, §5

CYP3A4 = target: T3, CYP3A4 (Homo sapiens, UniProt P08684); test: CYP isoenzyme activity inhibition in human liver microsomes, CYP3A4; format: in vitro ADME; conditions: 10 µM compound; human liver microsomes 0.25 mg/mL; relative to control without compound
T3 construct: human liver microsomes (0.25 mg/mL); from tissue; host or cells: human liver microsomes
Method: as §3, §4, §5

CYP2C9 = target: T4, CYP2C9 (Homo sapiens, UniProt P11712); test: CYP isoenzyme activity inhibition in human liver microsomes, CYP2C9; format: in vitro ADME; conditions: 10 µM compound; human liver microsomes 0.25 mg/mL; relative to control without compound
T4 construct: human liver microsomes (0.25 mg/mL); from tissue; host or cells: human liver microsomes
Method: as §3, §4, §5

Tau = target: T5, Tau (Homo sapiens, UniProt P10636); test: Tau aggregation inhibition in Tau-BiFC cell model (Forskolin-induced); format: cell-based
T5 construct: BiFC fluorescent-protein fragments (two complementary halves on two tau copies); expressed in transfected cells
Method: as §1, §2

CYP1A2 = target: T6, CYP1A2 (Homo sapiens, UniProt P05177); test: CYP isoenzyme activity inhibition in human liver microsomes, CYP1A2; format: in vitro ADME; conditions: 10 µM compound; human liver microsomes 0.25 mg/mL; relative to control without compound
T6 construct: human liver microsomes (0.25 mg/mL); from tissue; host or cells: human liver microsomes
T6 sequence (P05177 1-516): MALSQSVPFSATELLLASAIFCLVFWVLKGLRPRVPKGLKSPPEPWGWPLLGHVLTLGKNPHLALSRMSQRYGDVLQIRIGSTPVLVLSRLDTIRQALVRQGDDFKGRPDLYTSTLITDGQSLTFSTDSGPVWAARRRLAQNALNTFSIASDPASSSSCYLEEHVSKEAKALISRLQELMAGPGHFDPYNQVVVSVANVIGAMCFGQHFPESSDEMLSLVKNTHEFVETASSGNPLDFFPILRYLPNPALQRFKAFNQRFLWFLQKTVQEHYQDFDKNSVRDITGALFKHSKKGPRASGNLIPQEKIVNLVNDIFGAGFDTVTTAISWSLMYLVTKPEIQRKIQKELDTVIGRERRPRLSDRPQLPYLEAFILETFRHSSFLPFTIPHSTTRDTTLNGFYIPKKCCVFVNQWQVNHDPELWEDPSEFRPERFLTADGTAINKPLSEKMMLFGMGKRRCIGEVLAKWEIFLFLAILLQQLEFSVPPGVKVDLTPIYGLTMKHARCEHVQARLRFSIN
Method: as §3, §4, §5

TDP-43 BiFC cells = test: Cell viability (stained nuclei count) in TDP-43-BiFC cells; format: cell-based; conditions: Forskolin-only group = 100%
Method: (§6) To screen for new TDP-43 aggregation inhibitors, a TDP-43-BiFC cell model that facilitates observation of TDP-43 aggregate formation in living cells was used. Specifically, TDP-43-BiFC cells were dispensed into a 384-well plate, and the next day, the compounds prepared according to Examples 1 to 46 were treated at concentrations of 3 and 10 µM, respectively, together with Forskolin (treatment concentration 30 µM), which is a compound that induces TDP-43 aggregation by activating the phosphorylation enzyme PKA. After 48 hours, nuclei within cells were stained using Hoechst (treatment concentration 1 µg/mL), and BiFC fluorescence intensity was automatically quantified using Operetta (PerkinElmer) to count the stained nuclei in each well from the entire plate. The group treated only with Forskolin, which induces TDP-43 aggregation, was set as the reference point with 100% TDP-43 aggregation state, and the effect was confirmed by the formula "(BiFC fluorescence intensity by the compounds synthesized according to the Examples of the disclosure - fluorescence intensity of the untreated control group)/(fluorescence intensity of the control group treated only with Forskolin that induces TDP-43 aggregation - fluorescence intensity of the untreated control group) × 100". In addition, the degree of cytotoxicity induced by the newly synthesized compounds was also calculated using the formula "(number of stained nuclei in the compound-treated group/number of stained nuclei in the Forskolin-treated group) × 100", with the group treated only with Forskolin as the reference point at 100% viability. From the treatment results, substances that inhibit intracellular TDP-43 aggregation were identified through screening from a series of candidates based on the criteria of 80% or more TDP-43 aggregation inhibition and 60% cell viability at a compound treatment concentration of 3 µM.
(§7) Furthermore, to confirm the TDP-43 aggregation inhibitory effect according to the concentration of the compounds screened in Experimental Example 3, the screened compounds were treated to […] at concentrations of 0.003, 0.01, 0.03, 0.1, 0.3, 1, 3, and 10 µM, respectively, together with Forskolin (treatment concentration 30 µM), which is a TDP-43 aggregation-inducing substance. After 48 hours, cell images were examined to analyze the TDP-43 aggregation reaction and degree of cytotoxicity. The IC50 and toxicity of the compounds were analyzed by nonlinear regression analysis using Prism software (GraphPad). The calculated results for representative compounds are shown in Table 4 below: TDP-43 protein aggregation inhibitory effect and cell viability of novel compounds.

[1] = Liver microsomal stability, rat; format: in vitro ADME; conditions: 1 µM compound; 0.5 mg/mL microsomes; NADPH; 30 minutes at 37°C
Method: (§8) Liver microsomal stability by the compounds prepared according to Examples 1 to 46 was confirmed. Specifically, four types of liver microsomes (human, dog, rat, and mouse each at 0.5 mg/mL), 0.1 M phosphate buffer solution (pH 7.4), and the compounds at 1 µM concentration were added and pre-incubated at 37°C for 5 minutes, and then NADPH generation system solution was added and incubated at 37°C for an additional 30 minutes. Thereafter, an acetonitrile solution containing an internal standard (chloropropamide) was added to terminate the reaction, and after centrifugation for 5 minutes (14,000 rpm, 4°C), the supernatant was injected into an LC-MS/MS system to analyze the substrate drug, thereby evaluating the metabolic stability of 8 compounds.
(§9) The amount of remaining substrate through the reaction was analyzed using a Shimadzu Nexera XR system and TSQ vantage (Thermo). A Kinetex XB-C18 (2.1 × 100 mm, 2.6 µm, particle size; Phenomenex, USA) was used as the HPLC column, and (A) distilled water containing 0.1% formic acid and (B) acetonitrile containing 0.1% formic acid were used as mobile phases. Analyst software (version 1.6.3) and Xcalibur (version 1.6.1) were used for data analysis. The calculated results are shown in Table 5 below: Liver microsomal stability data of novel compounds from […] (human, rat, and mouse).

[2] = Liver microsomal stability, mouse; format: in vitro ADME; conditions: 1 µM compound; 0.5 mg/mL microsomes; NADPH; 30 minutes at 37°C
Method: as §8, §9

[3] = Liver microsomal stability, human; format: in vitro ADME; conditions: 1 µM compound; 0.5 mg/mL microsomes; NADPH; 30 minutes at 37°C
Method: as §8, §9

TDP-43 protein = target: T7, TDP-43 protein (Homo sapiens, UniProt Q13148); test: TDP-43 aggregation inhibition in TDP-43-BiFC cell model (Forskolin-induced); format: cell-based; conditions: read-out: TDP-43 protein aggregation inhibitory effect: Aggregation inhibitory effect (%) (@3 uM)
T7 construct: BiFC fluorescent-protein fragments (two complementary halves); expressed in transfected cells
Method: as §6, §7

T4 sequence (P11712 whole entry): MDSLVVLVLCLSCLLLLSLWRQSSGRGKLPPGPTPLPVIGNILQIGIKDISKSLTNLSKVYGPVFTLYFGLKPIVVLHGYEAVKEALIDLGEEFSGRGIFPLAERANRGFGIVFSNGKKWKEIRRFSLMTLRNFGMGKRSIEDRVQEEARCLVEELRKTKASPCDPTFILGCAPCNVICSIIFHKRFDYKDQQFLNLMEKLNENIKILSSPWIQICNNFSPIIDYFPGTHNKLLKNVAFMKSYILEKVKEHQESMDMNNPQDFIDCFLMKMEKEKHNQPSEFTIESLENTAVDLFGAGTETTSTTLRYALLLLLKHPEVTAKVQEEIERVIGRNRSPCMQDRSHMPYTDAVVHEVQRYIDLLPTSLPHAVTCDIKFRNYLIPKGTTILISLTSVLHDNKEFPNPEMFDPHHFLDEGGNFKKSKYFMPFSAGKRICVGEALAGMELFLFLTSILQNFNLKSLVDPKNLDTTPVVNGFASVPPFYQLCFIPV
T3 sequence (P08684 whole entry): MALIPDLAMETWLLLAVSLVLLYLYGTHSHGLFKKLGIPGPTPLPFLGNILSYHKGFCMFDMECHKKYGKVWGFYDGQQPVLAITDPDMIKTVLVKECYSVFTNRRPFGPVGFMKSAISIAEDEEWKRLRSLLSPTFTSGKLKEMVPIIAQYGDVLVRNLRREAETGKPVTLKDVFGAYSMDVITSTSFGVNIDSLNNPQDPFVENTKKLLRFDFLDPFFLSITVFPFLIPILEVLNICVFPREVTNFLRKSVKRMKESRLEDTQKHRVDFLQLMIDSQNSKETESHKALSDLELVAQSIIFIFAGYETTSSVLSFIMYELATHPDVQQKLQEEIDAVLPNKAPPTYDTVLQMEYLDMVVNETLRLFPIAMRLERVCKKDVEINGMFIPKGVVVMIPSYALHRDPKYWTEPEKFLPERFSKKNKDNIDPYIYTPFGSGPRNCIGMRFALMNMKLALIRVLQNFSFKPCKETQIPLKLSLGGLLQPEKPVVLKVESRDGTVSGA
T7 sequence (Q13148 whole entry, the tested form may be a part): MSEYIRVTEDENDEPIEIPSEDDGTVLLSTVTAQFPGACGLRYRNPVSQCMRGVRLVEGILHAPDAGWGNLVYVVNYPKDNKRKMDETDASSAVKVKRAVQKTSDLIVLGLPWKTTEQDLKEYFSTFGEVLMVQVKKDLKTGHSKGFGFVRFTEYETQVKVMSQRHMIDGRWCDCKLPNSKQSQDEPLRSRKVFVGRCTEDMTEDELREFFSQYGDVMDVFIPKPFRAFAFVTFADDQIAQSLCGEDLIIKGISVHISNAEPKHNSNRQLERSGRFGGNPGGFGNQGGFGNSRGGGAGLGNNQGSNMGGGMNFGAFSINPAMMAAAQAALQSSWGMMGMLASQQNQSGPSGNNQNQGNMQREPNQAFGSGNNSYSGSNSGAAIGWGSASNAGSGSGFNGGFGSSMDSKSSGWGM
T5 sequence (P10636 1-441 isoform P10636-8): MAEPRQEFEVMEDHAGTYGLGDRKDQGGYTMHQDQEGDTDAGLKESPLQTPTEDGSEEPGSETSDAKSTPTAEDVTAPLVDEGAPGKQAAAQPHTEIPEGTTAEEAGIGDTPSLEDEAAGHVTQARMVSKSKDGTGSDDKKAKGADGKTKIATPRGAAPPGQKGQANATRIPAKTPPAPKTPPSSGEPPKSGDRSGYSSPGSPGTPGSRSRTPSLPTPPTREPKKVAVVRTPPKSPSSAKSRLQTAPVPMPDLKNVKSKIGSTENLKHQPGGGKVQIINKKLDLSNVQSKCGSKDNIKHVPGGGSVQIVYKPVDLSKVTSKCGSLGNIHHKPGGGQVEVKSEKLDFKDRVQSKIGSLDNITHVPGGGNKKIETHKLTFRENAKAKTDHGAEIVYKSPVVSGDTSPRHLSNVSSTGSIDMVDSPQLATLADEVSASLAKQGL
T2 sequence (P33261 whole entry): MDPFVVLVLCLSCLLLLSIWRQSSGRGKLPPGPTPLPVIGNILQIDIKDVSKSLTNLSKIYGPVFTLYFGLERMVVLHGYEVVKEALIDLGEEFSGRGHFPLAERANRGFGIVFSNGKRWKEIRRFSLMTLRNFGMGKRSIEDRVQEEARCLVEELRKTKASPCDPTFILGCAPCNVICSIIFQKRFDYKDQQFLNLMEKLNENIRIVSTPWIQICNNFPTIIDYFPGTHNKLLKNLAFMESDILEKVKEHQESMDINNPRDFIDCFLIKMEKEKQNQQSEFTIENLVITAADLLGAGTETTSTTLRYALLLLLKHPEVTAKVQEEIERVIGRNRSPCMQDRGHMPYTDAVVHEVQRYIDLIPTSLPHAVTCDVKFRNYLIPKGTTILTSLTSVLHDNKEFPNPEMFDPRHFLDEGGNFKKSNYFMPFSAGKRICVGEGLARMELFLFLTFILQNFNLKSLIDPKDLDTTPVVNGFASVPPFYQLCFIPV
T1 sequence (P10635 whole entry): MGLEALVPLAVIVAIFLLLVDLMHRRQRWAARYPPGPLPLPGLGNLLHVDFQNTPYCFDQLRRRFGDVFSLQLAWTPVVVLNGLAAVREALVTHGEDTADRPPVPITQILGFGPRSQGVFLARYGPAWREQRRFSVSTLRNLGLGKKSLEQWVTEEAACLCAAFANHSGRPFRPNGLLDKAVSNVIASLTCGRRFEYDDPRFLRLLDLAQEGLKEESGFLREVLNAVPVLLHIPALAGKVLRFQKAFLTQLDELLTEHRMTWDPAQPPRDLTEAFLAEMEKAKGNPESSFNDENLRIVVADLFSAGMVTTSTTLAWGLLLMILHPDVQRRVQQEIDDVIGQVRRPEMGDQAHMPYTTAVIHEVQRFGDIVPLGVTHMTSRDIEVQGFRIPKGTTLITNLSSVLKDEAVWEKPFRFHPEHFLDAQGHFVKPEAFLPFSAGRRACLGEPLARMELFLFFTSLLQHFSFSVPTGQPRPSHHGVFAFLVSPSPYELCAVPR

SMILES: N#CC(C#N)=NNc1ccc2nc(N3CCOCC3)[nH]c2c1 [Compound 7, (2-morpholino-1H-benzo[d]imidazol-6-yl)carbonohydrazonoyl dicyanide]
- Cell viability (% @10µM) (Tau-BiFC cells): 100%
- CYP2D6 (% activity) (CYP2D6): > 100 % activity
- CYP2C19 (% activity) (CYP2C19): 95.1 % activity
- CYP3A4 (% activity) (CYP3A4): 83.1 % activity
- CYP2C9 (% activity) (CYP2C9): 67.8 % activity
- IC50 (Tau): 64 nM
- CYP1A2 (% activity) (CYP1A2): 57.6 % activity

SMILES: Cc1ccc(-c2nc3ccc(NN=C(C#N)C#N)cc3s2)cn1 [Comparative compound 6, N-(2-(6-methylpyridin-3-yl)benzo[d]thiazol-6-yl) carbonohydrazonoyl dicyanide, reference compound]
- Cell viability (%) (@ 3 uM) (TDP-43 BiFC cells): 60.8%
- CYP2D6 (% activity) (CYP2D6): 91.8 % activity
- CYP2C19 (% activity) (CYP2C19): 81.2 % activity
- CYP3A4 (% activity) (CYP3A4): 81.7 % activity
- CYP2C9 (% activity) (CYP2C9): 32.0 % activity
- Rat microsomes (% remaining) [1]: 83.9 % remaining
- Mouse microsomes (% remaining) [2]: >100 % remaining
- Human microsomes (% remaining) [3]: 84.7 % remaining
- CYP1A2 (% activity) (CYP1A2): 80.2 % activity
- inhibition at 3 µM (TDP-43 protein): 69.5%

SMILES: Cc1nc2ccc(NN=C(C#N)C#N)cc2s1 [Comparative compound 1, N-(2-methylbenzo[d]thiazol-6-yl)carbonohydrazonoyl dicyanide, reference compound]
- Cell viability (% @10µM) (Tau-BiFC cells): 100%
- Cell viability (%) (@ 3 uM) (TDP-43 BiFC cells): 79.0%
- Rat microsomes (% remaining) [1]: 1.2 % remaining
- Mouse microsomes (% remaining) [2]: 1.2 % remaining
- Human microsomes (% remaining) [3]: 37.0 % remaining
- IC50 (Tau): 500 nM
- inhibition at 3 µM (TDP-43 protein): 72.9%
